According to patent US10858335B2 (Rigel Pharmaceuticals, Inc., priority 2014, dated 2020):

System: GDF8 signaling (p-SMAD-3 (Ser423/425))
Assay: AlphaScreen SureFire SMAD3 (p-Ser423/425) assay, GDF8-stimulated cells (GDF pSMAD)
Assay type: cell-based
Conditions: MPC11; GDF8-stimulated; p-SMAD3 AlphaScreen; read-out: GDF pSMAD (MPC11) (inhibition of GDF8 signaling)

SMILES | IC50
Cc1cc(-c2ncccc2-c2ccn3ncc(C(=O)NC4CC5CCC(C4)N5C)c3c2)ccc1F (stereo not drawn) [compound 715, exo-5-(2-(4-Fluoro-3-methylphenyl)pyridin-3-yl)-N-(8-methyl-8-azabicyclo[3.2.1]octan-3-yl)pyrazolo[1,5-a]pyridine-3-carboxamide] | 2030 nM
Cc1cc(-c2ncccc2-c2ccn3ncc(C(=O)NC4CC5CCC(C4)N5C)c3c2)ccc1F (stereo not drawn) [compound 716, endo-5-(2-(4-Fluoro-3-methylphenyl)pyridin-3-yl)-N-(8-methyl-8-azabicyclo[3.2.1]octan-3-yl)pyrazolo[1,5-a]pyridine-3-carboxamide] | 5030 nM

Same assay, conditions: Mus musculus, MPC-11, MPC11; GDF8-stimulated; p-SMAD3 AlphaScreen; read-out: GDF pSMAD (MPC11) (inhibition of GDF8 signaling)

SMILES | IC50
Fc1cc(F)c(-c2ncccc2-c2ccc3ncsc3c2)cc1Cl [compound 718, 6-(2-(5-Chloro-2,4-difluorophenyl)pyridin-3-yl)benzo[d]thiazole] | 314 nM
N#Cc1cnc2ccc(-c3cccnc3-c3cc(Cl)c(F)cc3F)cn12 [compound 720, 6-(2-(5-Chloro-2,4-difluorophenyl)pyridin-3-yl)imidazo[1,2-a]pyridine-3-carbonitrile] | 822 nM
Fc1ccc(Cl)cc1-c1ncccc1-c1ccc2nccn2c1 [compound 721, 6-(2-(5-Chloro-2-fluorophenyl)pyridin-3-yl)imidazo[1,2-a]pyridine] | 440 nM
CN1CCC(NC(=O)c2cnc3ccc(-c4cccnc4-c4cc(Cl)ccc4F)cn23)CC1 [compound 722, 6-(2-(5-Chloro-2-fluorophenyl)pyridin-3-yl)-N-(1-methylpiperidin-4-yl)imidazo[1,2-a]pyridine-3-carboxamide] | 63.9 nM
Cc1ccc(F)c(-c2ncccc2-c2ccc3ncc(C(=O)NCCCN4CCCC4=O)n3c2)c1 [compound 725, 6-(2-(2-Fluoro-5-methylphenyl)pyridin-3-yl)-N-(3-(2-oxopyrrolidin-1-yl)propyl)imidazo[1,2-a]pyridine-3-carboxamide] | 464 nM
O=C(NCCCN1CCCC1=O)c1cnc2ccc(-c3cccnc3-c3cccc(Cl)c3)cn12 [compound 726, 6-(2-(3-Chlorophenyl)pyridin-3-yl)-N-(3-(2-oxopyrrolidin-1-yl)propyl)imidazo[1,2-a]pyridine-3-carboxamide] | 565 nM
O=C(NCCCN1CCCC1=O)c1cnc2ccc(-c3cccnc3-c3ccc(F)c(Cl)c3)cn12 [compound 727, 6-(2-(3-Chloro-4-fluorophenyl)pyridin-3-yl)-N-(3-(2-oxopyrrolidin-1-yl)propyl)imidazo[1,2-a]pyridine-3-carboxamide] | 886 nM
Clc1cccc(-c2ncccc2-c2ccn3ncnc3c2)c1 [compound 734, 7-(2-(3-Chlorophenyl)pyridin-3-yl)-[1,2,4]triazolo[1,5-a]pyridine] | 694 nM
Fc1cc(F)c(-c2ncccc2-c2ccn3ncnc3c2)cc1Cl [compound 735, 7-(2-(5-Chloro-2,4-difluorophenyl)pyridin-3-yl)-[1,2,4]triazolo[1,5-a]pyridine] | 676 nM
Fc1ccc(Cl)cc1-c1ncccc1-c1ccn2ncnc2c1 [compound 736, 7-(2-(5-Chloro-2-fluorophenyl)pyridin-3-yl)-[1,2,4]triazolo[1,5-a]pyridine] | 251 nM
Cc1ccc(F)c(-c2ncccc2-c2ccn3ncnc3c2)c1 [compound 737, 7-(2-(2-Fluoro-5-methylphenyl)pyridin-3-yl)-[1,2,4]triazolo[1,5-a]pyridine] | 260 nM
Clc1cccc(-c2ncccc2-c2ccc3nccnc3n2)c1 [compound 739, 6-(2-(3-Chlorophenyl)pyridin-3-yl)pyrido[2,3-b]pyrazine] | 2320 nM
Fc1ccc(-c2ncccc2-c2ccc3nccnc3n2)cc1Cl [compound 740, 6-(2-(3-Chloro-4-fluorophenyl)pyridin-3-yl)pyrido[2,3-b]pyrazine] | 9500 nM
Fc1cc(F)c(-c2ncccc2-c2ccc3nccnc3n2)cc1F [compound 741, 6-(2-(2,4,5-Trifluorophenyl)pyridin-3-yl)pyrido[2,3-b]pyrazine] | 10000 nM
Fc1ccc(Cl)cc1-c1ncccc1-c1ccc2nccnc2n1 [compound 742, 6-(2-(5-Chloro-2-fluorophenyl)pyridin-3-yl)pyrido[2,3-b]pyrazine] | 1820 nM
Fc1cc(F)c(-c2ncccc2-c2ccc3nccnc3n2)cc1Cl [compound 743, 6-(2-(5-Chloro-2,4-difluorophenyl)pyridin-3-yl)pyrido[2,3-b]pyrazine] | 638 nM
Fc1cc(F)c(-c2ncccc2-c2ccc3ncnn3c2)cc1Cl [compound 749, 6-(2-(5-Chloro-2,4-difluorophenyl)pyridin-3-yl)-[1,2,4]triazolo[1,5-a]pyridine] | 298 nM
Cc1cccc(-c2ncccc2-c2ccn3nccc3c2)c1 [compound 757, 5-(2-(m-Tolyl)pyridin-3-yl)pyrazolo[1,5-a]pyridine] | 127 nM
Fc1ccc(Cl)cc1-c1ncccc1-c1ccn2nccc2c1 [compound 761, 5-(2-(5-Chloro-2-fluorophenyl)pyridin-3-yl)pyrazolo[1,5-a]pyridine] | 131 nM
Cc1cnc2ccc(-c3cccnc3-c3ccc(F)c(Cl)c3)cn12 [compound 764, 6-(2-(3-Chloro-4-fluorophenyl)pyridin-3-yl)-3-methylimidazo[1,2-a]pyridine] | 275 nM
Cc1cnc2ccc(-c3cccnc3-c3cccc(Cl)c3)cn12 [compound 765, 6-(2-(3-Chlorophenyl)pyridin-3-yl)-3-methylimidazo[1,2-a]pyridine] | 96 nM

Now from value to compound:

IC50 | SMILES
217 nM | Fc1ccc(Cl)cc1-c1ncccc1-c1ccc2ncsc2c1 [compound 717, 6-(2-(5-Chloro-2-fluorophenyl)pyridin-3-yl)benzo[d]thiazole]
402 nM | N#Cc1cnc2ccc(-c3cccnc3-c3cc(Cl)ccc3F)cn12 [compound 719, 6-(2-(5-Chloro-2-fluorophenyl)pyridin-3-yl)imidazo[1,2-a]pyridine-3-carbonitrile]
102 nM | CN1CCC(NC(=O)c2cnc3ccc(-c4cccnc4-c4cc(Cl)c(F)cc4F)cn23)CC1 [compound 723, 6-(2-(5-Chloro-2,4-difluorophenyl)pyridin-3-yl)-N-(1-methylpiperidin-4-yl)imidazo[1,2-a]pyridine-3-carboxamide]
537 nM | Cc1cccc(-c2ncccc2-c2ccc3ncc(C(=O)NCCCN4CCCC4=O)n3c2)c1 [compound 724, N-(3-(2-Oxopyrrolidin-1-yl)propyl)-6-(2-(m-tolyl)pyridin-3-yl)imidazo[1,2-a]pyridine-3-carboxamide]
5060 nM | O=C(NCCCN1CCCC1=O)c1cnc2ccc(-c3cccnc3-c3cc(F)c(F)cc3F)cn12 [compound 728, N-(3-(2-Oxopyrrolidin-1-yl)propyl)-6-(2-(2,4,5-Trifluorophenyl)pyridin-3-yl)imidazo[1,2-a]pyridine-3-carboxamide]
286 nM | O=C(NCCCN1CCCC1=O)c1cnc2ccc(-c3cccnc3-c3cc(Cl)ccc3F)cn12 [compound 729, 6-(2-(5-Chloro-2-fluorophenyl)pyridin-3-yl)-N-(3-(2-oxopyrrolidin-1-yl)propyl)imidazo[1,2-a]pyridine-3-carboxamide]
590 nM | O=C(NCCCN1CCCC1=O)c1cnc2ccc(-c3cccnc3-c3cc(Cl)c(F)cc3F)cn12 [compound 730, 6-(2-(5-Chloro-2,4-difluorophenyl)pyridin-3-yl)-N-(3-(2-oxopyrrolidin-1-yl)propyl)imidazo[1,2-a]pyridine-3-carboxamide]
258 nM | Cc1cccc(-c2ncccc2-c2ccn3ncnc3c2)c1 [compound 732, 7-(2-(m-Tolyl)pyridin-3-yl)-[1,2,4]triazolo[1,5-a]pyridine]
1270 nM | Fc1ccc(-c2ncccc2-c2ccn3ncnc3c2)cc1Cl [compound 733, 7-(2-(3-Chloro-4-fluorophenyl)pyridin-3-yl)-[1,2,4]triazolo[1,5-a]pyridine]
1380 nM | Cc1cc(-c2ncccc2-c2ccc3nccnc3n2)ccc1F [compound 738, 6-(2-(4-Fluoro-3-methylphenyl)pyridin-3-yl)pyrido[2,3-b]pyrazine]
566 nM | Clc1cccc(-c2ncccc2-c2ccc3ncnn3c2)c1 [compound 746, 6-(2-(3-Chlorophenyl)pyridin-3-yl)-[1,2,4]triazolo[1,5-a]pyridine]
284 nM | Fc1ccc(Cl)cc1-c1ncccc1-c1ccc2ncnn2c1 [compound 747, 6-(2-(5-Chloro-2-fluorophenyl)pyridin-3-yl)-[1,2,4]triazolo[1,5-a]pyridine]
447 nM | Cc1ccc(F)c(-c2ncccc2-c2ccc3ncnn3c2)c1 [compound 748, 6-(2-(2-Fluoro-5-methylphenyl)pyridin-3-yl)-[1,2,4]triazolo[1,5-a]pyridine]
364 nM | Cc1cc(-c2ncccc2-c2ccn3nccc3c2)ccc1F [compound 756, 5-(2-(4-Fluoro-3-methylphenyl)pyridin-3-yl)pyrazolo[1,5-a]pyridine]
426 nM | Fc1ccc(-c2ncccc2-c2ccn3nccc3c2)cc1Cl [compound 758, 5-(2-(3-Chloro-4-fluorophenyl)pyridin-3-yl)pyrazolo[1,5-a]pyridine]
175 nM | Clc1cccc(-c2ncccc2-c2ccn3nccc3c2)c1 [compound 759, 5-(2-(3-Chlorophenyl)pyridin-3-yl)pyrazolo[1,5-a]pyridine]
274 nM | Fc1cc(F)c(-c2ncccc2-c2ccn3nccc3c2)cc1Cl [compound 760, 5-(2-(5-Chloro-2,4-difluorophenyl)pyridin-3-yl)pyrazolo[1,5-a]pyridine]
1190 nM | CC(=O)c1cnc2ccc(-c3cccnc3-c3ccc(F)c(Cl)c3)cn12 [compound 762, 1-(6-(2-(3-Chloro-4-fluorophenyl)pyridin-3-yl)imidazo[1,2-a]pyridin-3-yl)ethan-1-one]
520 nM | CC(=O)c1cnc2ccc(-c3cccnc3-c3cccc(Cl)c3)cn12 [compound 763, 1-(6-(2-(3-Chlorophenyl)pyridin-3-yl)imidazo[1,2-a]pyridin-3-yl)ethan-1-one]
